Columns and labels:
[1] = biological target: T1, KMT9 (Homo sapiens, UniProt Q9Y5N5); assay: Microscale thermophoresis (MST) KMT9 binding; conditions: microscale thermophoresis, His-tag labelled KMT9 (20 nM); read-out: MST
T1 sequence (Q9Y5N5 1-214): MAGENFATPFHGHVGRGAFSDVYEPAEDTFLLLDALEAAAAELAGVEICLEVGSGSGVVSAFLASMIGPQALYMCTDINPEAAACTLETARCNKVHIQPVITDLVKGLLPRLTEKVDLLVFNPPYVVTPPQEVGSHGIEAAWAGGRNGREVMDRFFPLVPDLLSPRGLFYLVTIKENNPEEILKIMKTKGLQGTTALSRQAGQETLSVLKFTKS
T1 sequence (Q9UI30 1-120 isoform Q9UI30-2 partner): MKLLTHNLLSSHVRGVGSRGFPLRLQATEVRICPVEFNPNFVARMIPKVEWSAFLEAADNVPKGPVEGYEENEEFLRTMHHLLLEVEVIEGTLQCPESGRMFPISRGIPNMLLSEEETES
Method in brief: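 His-tagged KMT9 (20 nM), RED-Tris-NTA labelled, titrated with varying compound concentrations in 25 mM HEPES pH 7.5, 100 mM NaCl, 1 mM DTT, 0.05% Tween. MST at 40% MST and 100% LED power, Nano-RED excitation; Kd binned A ≤10 nM, B 10–100, C 100–1000, D >1000 nM.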

[2] = biological target: T1, KMT9; assay: KMT9 methyltransferase inhibition assay, 3H-SAM scintillation (entries 1-154); format: biochemical; conditions: entries 1-154: 3H-SAM assay, 25 nM KMT9, 5 μM ETF1
Method in brief: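 Final 25 nM KMT9, 5 μM ETF1 (residues 140-275), 0.3 μM 3H-SAM plus 0.7 μM SAM in pH 8.5 BTP buffer, 2 h at 30° C. TCA-quenched, filter-washed, methylation counted by scintillation; % inhibition vs DMSO and no-enzyme controls, IC50 from four-parameter fit.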

[3] = biological target: T1, KMT9; assay: KMT9 thermal shift assay (SyproOrange); format: binding; conditions: ΔTm; 500 µM compound, 2 μM KMT9, 5X SO; read-out: Thermal shift
Method in brief: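 Recombinant KMT9 was incubated with compound and SyproOrange at 25° C in 50 mM BTP pH 8.5, 1 mM MgCl2, 1 mM DTT. It was then heated from 20° C to 95° C at 1° C per 15 s with fluorescence read each step. Tm came from a Boltzmann sigmoidal fit; ΔTm relative to DMSO control, binned in 5 K ranges.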

Which Kd [1] does the source give for CNc1ncnc2c1ccn2[C@@H]1C[C@H](CN(CCCNCCc2ccccc2)c2ccccc2)[C@@H](O)[C@H]1O [440 (312), (1R,2S,3R,5R)-3-(4-(Methylamino)-7H-pyrrolo[2,3-d]pyrimidin-7-yl)-5-(((3-(phenethylamino)propyl)(phenyl)amino)methyl)cyclopentane-12-diol] here?
Its Kd is over 1000 nM.

And the IC50 [2]?
The IC50 was over 10000 nM.

And the ΔTm at 500 µM [3]?
The ΔTm at 500 µM was at most 10 °C.

CNc1ncnc2c1ccn2[C@@H]1C[C@H](CN(CCCNCCc2ccccc2)c2cnn(C)c2)[C@@H](O)[C@H]1O [441 (313), (1S,2R,3R,5R)-3-(((1-Methyl-1H-pyrazol-4-yl)(3-(phenethylamino)propyl)amino)methyl)-5-(4-(methylamino)-7H-pyrrolo[2,3-d]pyrimidin-7-yl) cyclopentane-1,2-diol] was tested. Which Kd [1] did it give?
Its Kd is over 1000 nM.

What about the IC50 [2] of the same compound?
The IC50 was over 10000 nM.

What about the ΔTm at 500 µM [3] of the same compound?
The ΔTm at 500 µM was at most 10 °C.

With CNc1ncnc2c1ccn2[C@@H]1C[C@H](CN(CCCNCCc2ccccc2)c2cn[nH]c2)[C@@H](O)[C@H]1O [442 (314), (1R,2S,3R,5R)-3-(4-(Methylamino)-7H-pyrrolo[2,3-d]pyrimidin-7-yl)-5-(((3-(phenethylamino)propyl)(1H-pyrazol-4-yl)amino)methyl) cyclopentane-1,2-diol] as the compound, how does the Kd [1] read?
The Kd was 100 to 1000 nM.

And the IC50 [2]?
Its IC50 is 1000 to 10000 nM.

What about the ΔTm at 500 µM [3] of the same compound?
Its ΔTm at 500 µM is 10 to 15 °C.

How did the Kd [1] turn out when CNc1ncnc2c1ccn2[C@@H]1C[C@H](CN(CCCNCCc2ccccc2)c2ccn(C)n2)[C@@H](O)[C@H]1O [443 (315), (1R,2S,3R,5R)-3-[4-(Methylamino)pyrrolo[2,3-d]pyrimidin-7-yl]-5-{[(1-methylpyrazol-3-yl)({3-[(2-phenylethyl)amino]propyl})amino]methyl}cyclopentane-1,2-diol] was run?
Its Kd is over 1000 nM.

And the IC50 [2]?
Its IC50 is over 10000 nM.

What about the ΔTm at 500 µM [3] of the same compound?
The ΔTm at 500 µM was at most 10 °C.

For CNc1ncnc2c1ccn2[C@@H]1C[C@H](CN(CCCNCCc2ccccc2)c2cc[nH]n2)[C@@H](O)[C@H]1O [444 (316)], which Kd [1] is on record?
Its Kd is over 1000 nM.

What about the IC50 [2] of the same compound?
The IC50 was 1000 to 10000 nM.

And the ΔTm at 500 µM [3]?
Its ΔTm at 500 µM is at most 10 °C.

For CNc1ncnc2c1ccn2[C@@H]1C[C@H](CN2CCC23CNC3)[C@@H](O)[C@H]1O [445 (317), (1S,2R,3R,5R)-3-((1,6-Diazaspiro[3.3]heptan-1-yl)methyl)-5-(4-(methylamino)-7H-pyrrolo[2,3-d]pyrimidin-7-yl) cyclopentane-1,2-diol], which Kd [1] is on record?
Its Kd is over 1000 nM.

What about the IC50 [2] of the same compound?
Its IC50 is over 10000 nM.

And the ΔTm at 500 µM [3]?
The ΔTm at 500 µM was at most 10 °C.

What does the source list for CNc1ncnc2c1ccn2[C@@H]1C[C@H](CN2CCC23CCNC3)[C@@H](O)[C@H]1O (stereo partly drawn) [446 (318), (1S,2R,3R,5R)-3-{1,6-Diazaspiro[3.4]octan-1-ylmethyl}-5-[4-(methylamino)pyrrolo[2,3-d]pyrimidin-7-yl]cyclopentane-1,2-diol]?
Kd [1]: > 1000 nM; IC50 [2]: > 10000 nM; ΔTm at 500 µM [3]: ≤ 10 °C

Which results are given for CNc1ncnc2c1ccn2[C@@H]1C[C@H](CN2CCC23CCCNC3)[C@@H](O)[C@H]1O (stereo partly drawn) [447 (319), (1S,2R,3R,5R)-3-{1,6-Diazaspiro[3.5]nonan-1-ylmethyl}-5-[4-(methylamino)pyrrolo[2,3-d]pyrimidin-7-yl]cyclopentane-1,2-diol]?
Kd [1]: > 1000 nM; IC50 [2]: > 10000 nM; ΔTm at 500 µM [3]: ≤ 10 °C

Which Kd [1] does the source give for CNc1ncnc2c1ccn2[C@@H]1C[C@H](CN2CCCCC23CCNC3)[C@@H](O)[C@H]1O (stereo partly drawn) [448 (320), (1S,2R,3R,5R)-3-{2,6-diazaspiro[4.5]decan-6-ylmethyl}-5-[4-(methylamino)pyrrolo[2,3-d]pyrimidin-7-yl]cyclopentane-1,2-diol] here?
Its Kd is over 1000 nM.

And the IC50 [2]?
Its IC50 is over 10000 nM.

What about the ΔTm at 500 µM [3] of the same compound?
The ΔTm at 500 µM was at most 10 °C.

Which results are given for CNc1ncnc2c1ccn2[C@@H]1C[C@H](CN2CCCC23CCNCC3)[C@@H](O)[C@H]1O [451 (323), (1S,2R,3R,5R)-3-((1,8-Diazaspiro[4.5]decan-1-yl)methyl)-5-(4-(methylamino)-7H-pyrrolo[2,3-d]pyrimidin-7-yl) cyclopentane-1,2-diol]?
Kd [1]: > 1000 nM; IC50 [2]: > 10000 nM; ΔTm at 500 µM [3]: ≤ 10 °C

Which results are given for Nc1ncnc2c1c(Br)cn2[C@@H]1C[C@H](C(=O)NCCCNCCc2ccccc2)[C@@H](O)[C@H]1O [452 (324), (1S,2R,3S,4R)-4-(4-Amino-5-bromo-7H-pyrrolo[2,3-d]pyrimidin-7-yl)-2,3-dihydroxy-N-(3-(phenethylamino)propyl) cyclopentane-1-carboxamide]?
Kd [1]: 10 to 100 nM; IC50 [2]: 100 to 1000 nM; ΔTm at 500 µM [3]: 15 to 20 °C

Which results are given for Nc1ncnc2c1c(Br)cn2[C@@H]1C[C@H](C(=O)NC[C@H]2CCCNC2)[C@@H](O)[C@H]1O [453 (325), (1S,2R,3S,4R)-4-(4-Amino-5-bromo-7H-pyrrolo[2,3-d]pyrimidin-7-yl)-2,3-dihydroxy-N-(((S)-piperidin-3-yl)methyl) cyclopentane-1-carboxamide]?
Kd [1]: 100 to 1000 nM; IC50 [2]: > 10000 nM; ΔTm at 500 µM [3]: 10 to 15 °C

For Nc1ncnc2c1c(Br)cn2[C@@H]1C[C@H](C(=O)NC[C@@H]2CCCNC2)[C@@H](O)[C@H]1O [454 (326), (1S,2R,3S,4R)-4-(4-Amino-5-bromo-7H-pyrrolo[2,3-d]pyrimidin-7-yl)-2,3-dihydroxy-N-(((R)-piperidin-3-yl)methyl) cyclopentane-1-carboxamide], which Kd [1] is on record?
Its Kd is 100 to 1000 nM.

What about the IC50 [2] of the same compound?
Its IC50 is over 10000 nM.

And the ΔTm at 500 µM [3]?
The ΔTm at 500 µM was 10 to 15 °C.

Which Kd [1] does the source give for Nc1ncnc2c1c(Br)cn2[C@@H]1C[C@H](CNC[C@H]2CCCNC2)[C@@H](O)[C@H]1O [455 (327), (1R,2S,3R,5R)-3-(4-Amino-5-bromo-7H-pyrrolo[2,3-d]pyrimidin-7-yl)-5-(((((S)-piperidin-3-yl)methyl)amino)methyl)cyclopentane-1,2-diol] here?
The Kd was over 1000 nM.

What about the IC50 [2] of the same compound?
Its IC50 is over 10000 nM.

And the ΔTm at 500 µM [3]?
Its ΔTm at 500 µM is 10 to 15 °C.

For Nc1ncnc2c1c(Br)cn2[C@@H]1C[C@H](CNC[C@@H]2CCCNC2)[C@@H](O)[C@H]1O [456 (328), (1R,2S,3R,5R)-3-(4-Amino-5-bromo-7H-pyrrolo[2,3-d]pyrimidin-7-yl)-5-(((((R)-piperidin-3-yl)methyl)amino)methyl) cyclopentane-1,2-diol], which Kd [1] is on record?
Its Kd is over 1000 nM.

And the IC50 [2]?
The IC50 was over 10000 nM.

What about the ΔTm at 500 µM [3] of the same compound?
Its ΔTm at 500 µM is 10 to 15 °C.

What does the source list for Nc1ncnc2c1c(Br)cn2[C@@H]1C[C@H](CNCCCNCCc2cccc(Oc3ccccc3)c2)[C@@H](O)[C@H]1O [457 (329)]?
Kd [1]: 10 to 100 nM; IC50 [2]: 100 to 1000 nM; ΔTm at 500 µM [3]: 15 to 20 °C

With CNc1ncnc2c1c(Br)cn2[C@@H]1C[C@H](CNCCCNCCc2cccc(Oc3ccccc3)c2)[C@@H](O)[C@H]1O [458 (330), (1R,2S,3R,5R)-3-(5-Bromo-4-(methylamino)-7H-pyrrolo[2,3-d]pyrimidin-7-yl)-5-(((3-((3-phenoxyphenethyl)amino)propyl)amino)methyl) cyclopentane-1,2-diol] as the compound, how does the Kd [1] read?
The Kd was over 1000 nM.

What about the IC50 [2] of the same compound?
Its IC50 is over 10000 nM.

And the ΔTm at 500 µM [3]?
Its ΔTm at 500 µM is at most 10 °C.

How did the Kd [1] turn out when CCc1cn([C@@H]2C[C@H](CNCCCNCCc3cccc(Oc4ccccc4)c3)[C@@H](O)[C@H]2O)c2ncnc(N)c12 [459 (332), (1R,2S,3R,5R)-3-(4-Amino-5-ethyl-7H-pyrrolo[2,3-d]pyrimidin-7-yl)-5-(((3-((3-phenoxyphenethyl)amino)propyl)amino)methyl) cyclopentane-1,2-diol] was run?
Its Kd is 10 to 100 nM.

And the IC50 [2]?
Its IC50 is 1000 to 10000 nM.

And the ΔTm at 500 µM [3]?
The ΔTm at 500 µM was 15 to 20 °C.

What does the source list for Nc1ncnc2c1c(C1CC1)cn2[C@@H]1C[C@H](CNCCCNCCc2cccc(Oc3ccccc3)c2)[C@@H](O)[C@H]1O [460 (333), (1R,2S,3R,5R)-3-(4-Amino-5-cyclopropyl-7H-pyrrolo[2,3-d]pyrimidin-7-yl)-5-(((3-((3-phenoxyphenethyl)amino)propyl)amino)methyl) cyclopentane-1,2-diol]?
Kd [1]: 10 to 100 nM; IC50 [2]: 100 to 1000 nM; ΔTm at 500 µM [3]: 15 to 20 °C

For Nc1ncnc2c1c(-c1ccccc1)cn2[C@@H]1C[C@H](CNCCCNCCc2cccc(Oc3ccccc3)c2)[C@@H](O)[C@H]1O [461 (334), (1R,2S,3R,5R)-3-(4-Amino-5-phenyl-7H-pyrrolo[2,3-d]pyrimidin-7-yl)-5-(((3-((3-phenoxyphenethyl)amino)propyl)amino)methyl) cyclopentane-1,2-diol], which Kd [1] is on record?
Its Kd is 100 to 1000 nM.

And the IC50 [2]?
Its IC50 is 100 to 1000 nM.

What about the ΔTm at 500 µM [3] of the same compound?
The ΔTm at 500 µM was 15 to 20 °C.

What does the source list for C=Cc1cn([C@@H]2C[C@H](CNCCCNCCc3cccc(Oc4ccccc4)c3)[C@@H](O)[C@H]2O)c2ncnc(N)c12 [462 (336), (1R,2S,3R,5R)-3-{4-Amino-5-ethenylpyrrolo[2,3-d]pyrimidin-7-yl}-5-{[(3-{[2-(3-phenoxyphenyl)ethyl]amino}propyl)amino]methyl}cyclopentane-1,2-diol]?
Kd [1]: 10 to 100 nM; IC50 [2]: 1000 to 10000 nM; ΔTm at 500 µM [3]: 15 to 20 °C

With Nc1ncnc2c1c(Br)cn2[C@@H]1C[C@H](CNCCCNCCc2ccccc2)[C@@H](O)[C@H]1O [463 (337), (1R,2S,3R,5R)-3-(4-Amino-5-bromo-7H-pyrrolo[2,3-d]pyrimidin-7-yl)-5-(((3-(phenethylamino)propyl)amino)methyl) cyclopentane-1,2-diol] as the compound, how does the Kd [1] read?
Its Kd is 10 to 100 nM.

What about the IC50 [2] of the same compound?
Its IC50 is over 10000 nM.

And the ΔTm at 500 µM [3]?
The ΔTm at 500 µM was 15 to 20 °C.
